Tested on: 596521-263-R-J1-PDC complex spheroids, viability % of control
Assay: Anticancer human tumor 596521-263-R-J1-PDC patient-derived soft tissue sarcoma cell line growth inhibition [GQUAD]
Conditions: for IC50: curve of first compound; for viability, T/C: stronger effect = lower value
Outline: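 Tumor cells were grown as complex spheroids with HUVEC endothelial cells and mesenchymal stem cells as stroma. G-quadruplex stabilizers were combined with targeted agents over half-log dilutions from near the clinical Cmax, or from 10 microM.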

[1] = second compound 0.0316 µM, first compound 0.0316 µM
[2] = second compound 0.0316 µM, first compound 0.316 µM
[3] = second compound 0.1 µM, first compound 0.0316 µM
[4] = second compound 0.1 µM, first compound 0.316 µM
[5] = second compound 0.316 µM, first compound 0.0316 µM
[6] = second compound 0.316 µM, first compound 0.316 µM
[7] = second compound 1 µM, first compound 0.0316 µM
[8] = second compound 1 µM, first compound 0.316 µM
[9] = second compound 3.16 µM, first compound 0.0316 µM
[10] = second compound 3.16 µM, first compound 0.316 µM
[11] = second compound 10 µM, first compound 0.0316 µM
[12] = second compound 10 µM, first compound 0.316 µM
[13] = second compound 0.0316 µM, first compound 0.1 µM
[14] = second compound 0.0316 µM, first compound 1 µM
[15] = second compound 0.0316 µM, first compound 3.16 µM
[16] = second compound 0.0316 µM, first compound 10 µM
[17] = second compound 0.1 µM, first compound 0.1 µM
[18] = second compound 0.1 µM, first compound 1 µM
[19] = second compound 0.1 µM, first compound 3.16 µM
[20] = second compound 0.1 µM, first compound 10 µM
[21] = second compound 0.316 µM, first compound 0.1 µM
[22] = second compound 0.316 µM, first compound 1 µM
[23] = second compound 0.316 µM, first compound 3.16 µM
[24] = second compound 0.316 µM, first compound 10 µM
[25] = second compound 1 µM, first compound 0.1 µM
[26] = second compound 1 µM, first compound 1 µM
[27] = second compound 1 µM, first compound 3.16 µM
[28] = second compound 1 µM, first compound 10 µM
[29] = second compound 3.16 µM, first compound 0.1 µM
[30] = second compound 3.16 µM, first compound 1 µM
[31] = second compound 3.16 µM, first compound 3.16 µM
[32] = second compound 3.16 µM, first compound 10 µM
[33] = second compound 10 µM, first compound 0.1 µM
[34] = second compound 10 µM, first compound 1 µM
[35] = second compound 10 µM, first compound 3.16 µM
[36] = second compound 10 µM, first compound 10 µM
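Note: spheroids exposed to drugs for 7 days before viability reading.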
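Throughout, for viability, T/C: 100% = DMSO vehicle control viability.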

Question: For CC[C@@]1(O)C(=O)OCc2c1cc1n(c2=O)Cc2cc3c(CN(C)C)c(O)ccc3nc2-1 + CN(C)c1ccc(Nc2c3ccc(NC(=O)CCN4CCCC4)cc3nc3cc(NC(=O)CCN4CCCC4)ccc23)cc1, which IC50 (second compound 0.0316 µM) is on record?
Answer: > 316 nM

Question: And the IC50 (second compound 0.1 µM)?
Answer: 161 nM

Question: What about the IC50 (second compound 0.316 µM) of the same molecule?
Answer: > 316 nM

Question: And the IC50 (second compound 1 µM)?
Answer: > 316 nM

Question: And the IC50 (second compound 3.16 µM)?
Answer: > 316 nM

Question: What about the IC50 (second compound 10 µM) of the same molecule?
Answer: 76.9 nM

Question: What about the viability, T/C (second compound 0.0316 µM, first compound 0.000999 µM) of the same molecule?
Answer: 99.7%

Question: And the viability, T/C (second compound 0.0316 µM, first compound 0.00316 µM)?
Answer: 108%

Question: And the viability, T/C (second compound 0.0316 µM, first compound 0.00999 µM)?
Answer: 91.9%

Question: What about the viability, T/C [1] of the same molecule?
Answer: 62.4%

Question: And the viability, T/C (second compound 0.0316 µM, first compound 0.0999 µM)?
Answer: 63.8%

Question: And the viability, T/C [2]?
Answer: 53.2%

Question: What about the viability, T/C (second compound 0.1 µM, first compound 0.000999 µM) of the same molecule?
Answer: 114%

Question: And the viability, T/C (second compound 0.1 µM, first compound 0.00316 µM)?
Answer: 105%

Question: What about the viability, T/C (second compound 0.1 µM, first compound 0.00999 µM) of the same molecule?
Answer: 103%

Question: What about the viability, T/C [3] of the same molecule?
Answer: 65.3%

Question: And the viability, T/C (second compound 0.1 µM, first compound 0.0999 µM)?
Answer: 54.3%

Question: And the viability, T/C [4]?
Answer: 46.2%

Question: What about the viability, T/C (second compound 0.316 µM, first compound 0.000999 µM) of the same molecule?
Answer: 94.5%

Question: What about the viability, T/C (second compound 0.316 µM, first compound 0.00316 µM) of the same molecule?
Answer: 97.9%

Question: And the viability, T/C (second compound 0.316 µM, first compound 0.00999 µM)?
Answer: 83.3%

Question: What about the viability, T/C [5] of the same molecule?
Answer: 74.1%

Question: And the viability, T/C (second compound 0.316 µM, first compound 0.0999 µM)?
Answer: 59.4%

Question: What about the viability, T/C [6] of the same molecule?
Answer: 53.6%

Question: What about the viability, T/C (second compound 1 µM, first compound 0.000999 µM) of the same molecule?
Answer: 92%

Question: What about the viability, T/C (second compound 1 µM, first compound 0.00316 µM) of the same molecule?
Answer: 92.9%

Question: And the viability, T/C (second compound 1 µM, first compound 0.00999 µM)?
Answer: 86.1%

Question: What about the viability, T/C [7] of the same molecule?
Answer: 73.1%

Question: And the viability, T/C (second compound 1 µM, first compound 0.0999 µM)?
Answer: 57.3%

Question: What about the viability, T/C [8] of the same molecule?
Answer: 54.2%

Question: And the viability, T/C (second compound 3.16 µM, first compound 0.000999 µM)?
Answer: 95.8%

Question: And the viability, T/C (second compound 3.16 µM, first compound 0.00316 µM)?
Answer: 88.8%

Question: What about the viability, T/C (second compound 3.16 µM, first compound 0.00999 µM) of the same molecule?
Answer: 84.1%

Question: And the viability, T/C [9]?
Answer: 61.1%

Question: And the viability, T/C (second compound 3.16 µM, first compound 0.0999 µM)?
Answer: 59.1%

Question: What about the viability, T/C [10] of the same molecule?
Answer: 52.5%

Question: And the viability, T/C (second compound 10 µM, first compound 0.000999 µM)?
Answer: 58.5%

Question: What about the viability, T/C (second compound 10 µM, first compound 0.00316 µM) of the same molecule?
Answer: 70.6%

Question: What about the viability, T/C (second compound 10 µM, first compound 0.00999 µM) of the same molecule?
Answer: 54.6%

Question: And the viability, T/C [11]?
Answer: 50.1%

Question: What about the viability, T/C (second compound 10 µM, first compound 0.0999 µM) of the same molecule?
Answer: 52%

Question: What about the viability, T/C [12] of the same molecule?
Answer: 41.4%

Question: With CC1COCCN1c1cc(C2(O)CC3CCC(C2)O3)c2cnn(-c3ccn[nH]3)c2n1 (stereo unspecified) + Cc1cnc(CNC(=O)c2c(=O)c3ccc(N4CCCN(C)CC4)nc3n3c2sc2ccccc23)cn1 as the molecule, how does the IC50 (second compound 0.0316 µM) read?
Answer: 211 nM

Question: What about the IC50 (second compound 0.1 µM) of the same molecule?
Answer: 115 nM

Question: What about the IC50 (second compound 0.316 µM) of the same molecule?
Answer: 158 nM

Question: What about the IC50 (second compound 1 µM) of the same molecule?
Answer: 63.7 nM

Question: What about the IC50 (second compound 3.16 µM) of the same molecule?
Answer: < 31.6 nM

Question: What about the IC50 (second compound 10 µM) of the same molecule?
Answer: < 31.6 nM

Question: And the viability, T/C [1]?
Answer: 65.1%

Question: What about the viability, T/C [13] of the same molecule?
Answer: 60.9%

Question: What about the viability, T/C [2] of the same molecule?
Answer: 42.7%

Question: And the viability, T/C [14]?
Answer: 34.6%

Question: And the viability, T/C [15]?
Answer: 25.5%

Question: And the viability, T/C [16]?
Answer: 13.8%

Question: And the viability, T/C [3]?
Answer: 61%

Question: What about the viability, T/C [17] of the same molecule?
Answer: 49.9%

Question: What about the viability, T/C [4] of the same molecule?
Answer: 42.3%

Question: What about the viability, T/C [18] of the same molecule?
Answer: 33%

Question: And the viability, T/C [19]?
Answer: 24.9%

Question: And the viability, T/C [20]?
Answer: 15.2%

Question: What about the viability, T/C [5] of the same molecule?
Answer: 56.9%

Question: And the viability, T/C [21]?
Answer: 54%

Question: And the viability, T/C [6]?
Answer: 47.1%

Question: What about the viability, T/C [22] of the same molecule?
Answer: 29.7%

Question: What about the viability, T/C [23] of the same molecule?
Answer: 26.5%

Question: What about the viability, T/C [24] of the same molecule?
Answer: 13.6%

Question: What about the viability, T/C [7] of the same molecule?
Answer: 56.2%

Question: And the viability, T/C [25]?
Answer: 44.2%

Question: And the viability, T/C [8]?
Answer: 38.9%

Question: What about the viability, T/C [26] of the same molecule?
Answer: 31.4%

Question: And the viability, T/C [27]?
Answer: 23.9%

Question: And the viability, T/C [28]?
Answer: 13.8%

Question: What about the viability, T/C [9] of the same molecule?
Answer: 49.2%

Question: What about the viability, T/C [29] of the same molecule?
Answer: 40.2%

Question: What about the viability, T/C [10] of the same molecule?
Answer: 41.5%

Question: What about the viability, T/C [30] of the same molecule?
Answer: 24.8%

Question: What about the viability, T/C [31] of the same molecule?
Answer: 27.5%

Question: What about the viability, T/C [32] of the same molecule?
Answer: 14.4%

Question: What about the viability, T/C [11] of the same molecule?
Answer: 37.7%

Question: And the viability, T/C [33]?
Answer: 32.6%

Question: And the viability, T/C [12]?
Answer: 33.6%

Question: And the viability, T/C [34]?
Answer: 27.9%

Question: What about the viability, T/C [35] of the same molecule?
Answer: 18.2%

Question: And the viability, T/C [36]?
Answer: 4.21%

Question: For CC1COCCN1c1cc(C2(S(C)(=N)=O)CC2)nc(-c2ccnc3[nH]ccc23)n1 (stereo unspecified) + Cc1[nH]c2ccc(F)cc2c1-c1nc2c3cccnc3c3ncccc3c2[nH]1, which IC50 (second compound 0.0316 µM) is on record?
Answer: > 10000 nM

Question: And the IC50 (second compound 0.1 µM)?
Answer: 8240 nM

Question: What about the IC50 (second compound 0.316 µM) of the same molecule?
Answer: 7650 nM

Question: What about the IC50 (second compound 1 µM) of the same molecule?
Answer: > 10000 nM

Question: And the IC50 (second compound 3.16 µM)?
Answer: 6020 nM

Question: And the IC50 (second compound 10 µM)?
Answer: 4760 nM

Question: And the viability, T/C [1]?
Answer: 94.5%

Question: And the viability, T/C [13]?
Answer: 92.9%

Question: And the viability, T/C [2]?
Answer: 92.1%

Question: What about the viability, T/C [14] of the same molecule?
Answer: 79.2%

Question: What about the viability, T/C [15] of the same molecule?
Answer: 64.5%

Question: What about the viability, T/C [16] of the same molecule?
Answer: 50.9%

Question: And the viability, T/C [3]?
Answer: 104%

Question: What about the viability, T/C [17] of the same molecule?
Answer: 95.5%

Question: What about the viability, T/C [4] of the same molecule?
Answer: 90.8%

Question: What about the viability, T/C [18] of the same molecule?
Answer: 79.6%

Question: And the viability, T/C [19]?
Answer: 63.1%

Question: And the viability, T/C [20]?
Answer: 47.2%

Question: And the viability, T/C [5]?
Answer: 100%

Question: And the viability, T/C [21]?
Answer: 111%

Question: What about the viability, T/C [6] of the same molecule?
Answer: 98.5%

Question: And the viability, T/C [22]?
Answer: 84.5%

Question: And the viability, T/C [23]?
Answer: 62.6%

Question: What about the viability, T/C [24] of the same molecule?
Answer: 46.1%

Question: What about the viability, T/C [7] of the same molecule?
Answer: 94.5%

Question: What about the viability, T/C [25] of the same molecule?
Answer: 92.8%

Question: What about the viability, T/C [8] of the same molecule?
Answer: 85.5%

Question: What about the viability, T/C [26] of the same molecule?
Answer: 86.1%

Question: And the viability, T/C [27]?
Answer: 67.9%

Question: What about the viability, T/C [28] of the same molecule?
Answer: 51.4%

Question: What about the viability, T/C [9] of the same molecule?
Answer: 80.3%

Question: What about the viability, T/C [29] of the same molecule?
Answer: 89%

Question: What about the viability, T/C [10] of the same molecule?
Answer: 87.2%

Question: What about the viability, T/C [30] of the same molecule?
Answer: 65.6%

Question: What about the viability, T/C [31] of the same molecule?
Answer: 62.6%

Question: And the viability, T/C [32]?
Answer: 42.1%

Question: What about the viability, T/C [11] of the same molecule?
Answer: 80.5%

Question: What about the viability, T/C [33] of the same molecule?
Answer: 72.6%

Question: What about the viability, T/C [12] of the same molecule?
Answer: 81%

Question: What about the viability, T/C [34] of the same molecule?
Answer: 61.7%

Question: And the viability, T/C [35]?
Answer: 55.3%

Question: What about the viability, T/C [36] of the same molecule?
Answer: 43.9%
